Experimental data published in US9199941B2, “Pyrazole indanyl carboxamides” (BAYER CROPSCIENCE AG, priority 2012, dated 2015).

Experiments:
Uromyces appendiculatus = test: In vivo preventive test on Uromyces appendiculatus (bean rust); settings: preventive spray, bean plants, grading 11 days after contamination
Experimental: Bean plants (“Saxa” variety), sown in starter cups on a 50/50 peat soil-pozzolana substrate and grown at 24° C., are treated at the 2-leaf stage (9 cm height) by spraying with the active ingredient prepared as described above. Plants, used as controls, are treated with the mixture of acetone/tween/DMSO/water not containing the active material. After 24 hours, the plants are contaminated by spraying the leaves with an aqueous suspension of Uromyces appendiculatus spores (150 000 spores per ml). […] Grading (% of efficacy) is carried out 11 days after the contamination, in comparison with the control plants.

Pyrenophora teres = test: In vivo preventive test on Pyrenophora teres (net blotch on barley); settings: preventive spray, barley plants, incubated 48 hours then 12 days; for Eff. %: 500 ppm; for Efficacy: 100 ppm
Experimental: Barley plants (“Plaisant” variety), sown in starter cups on a 50/50 peat soil-pozzolana substrate and grown at 22° C., are treated at the 1-leaf stage (10 cm height) by spraying with the active ingredient prepared as described above. Plants, used as controls, are treated with the mixture of acetone/tween/DMSO/water not containing the active material. After 24 hours, the plants are contaminated by spraying the leaves with an aqueous suspension of Pyrenophora teres spores (12 000 spores per ml). The spores are collected from a 12-day-old culture.

Sphaerotheca fuliginea = test: In vivo preventive test on Sphaerotheca fuliginea (powdery mildew on cucurbits); settings: preventive spray, gherkin plants, grading 12 days after contamination
Experimental: Gherkin plants (“Vert petit de Paris” variety), sown in starter cups on a 50/50 peat soil-pozzolana substrate and grown at 24° C., are treated at the Z11 cotyledon stage by spraying with the active ingredient prepared as described above. Plants, used as controls, are treated with the mixture of acetone/tween/DMSO/water not containing the active material. After 24 hours, the plants are contaminated by spraying the cotyledons with an aqueous suspension of Sphaerotheca fuliginea spores (100 000 spores per ml). The spores are collected from infected plants. The contaminated gherkin plants are incubated at about 20° C. and at 70-80% relative humidity. Grading (% of efficacy) is carried out 12 days after the contamination, in comparison with the control plants.

Puccinia recondita = test: In vivo preventive test on Puccinia recondita (brown rust on wheat); settings: preventive spray, wheat plants, grading 12 days after contamination
Experimental: Plants, used as controls, are treated with the mixture of acetone/tween/DMSO/water not containing the active material. After 24 hours, the plants are contaminated by spraying the leaves with an aqueous suspension of Puccinia […] spores (100 000 spores per ml). […] Grading (% of efficacy) is carried out 12 days after the contamination, in comparison with the control plants.

Septoria tritici = test: In vivo preventive test on Septoria tritici (leaf spot on wheat); settings: 500 ppm, preventive spray, wheat plants, grading 24 days after contamination
Experimental: Wheat plants (“Scipion” variety), sown in starter cups on a 50/50 peat soil-pozzolana substrate and grown at 22° C., are treated at the 1-leaf stage (10 cm height) by spraying with the active ingredient prepared as described above. Plants, used as controls, are treated with the mixture of acetone/tween/DMSO/water not containing the active material. After 24 hours, the plants are contaminated by spraying the leaves with an aqueous suspension of cryopreserved Septoria tritici spores (500 000 spores per ml). […] Grading (% of efficacy) is carried out 24 days after the contamination, in comparison with the control plants.

[1] = log P by HPLC on reversed phase columns (EEC directive 79/831 Annex V.A8); assay type: physicochemical; settings: Table 1, compounds of formula (I); method [a]: LC-MS at pH 2.7, 0.1% formic acid in water / acetonitrile
Alternaria brassicae = test: In vivo preventive test on Alternaria brassicae (leaf spot on radish); settings: 500 ppm, preventive spray, radish plants, grading 6 days after contamination
Experimental: Radish plants (“Pernod Clair” variety), sown in starter cups on a 50/50 peat soil-pozzolana substrate and grown at 17° C., are treated at the cotyledon stage by spraying with the active ingredient prepared as described above. Plants, used as controls, are treated with the mixture of acetone/tween/DMSO/water not containing the active material. After 24 hours, the plants are contaminated by spraying the cotyledons with an aqueous suspension of Alternaria brassicae spores (50 000 spores per ml). The spores are collected from a 15-day-old culture. […] Grading (% of efficacy) is carried out 6 days after the contamination, in comparison with the control plants.

Botrytis cinerea = test: In vivo preventive test on Botrytis cinerea (grey mould), gherkin; settings: preventive spray, gherkin plants, grading 4 to 5 days after contamination
Experimental: Gherkin plants (“Vert petit de Paris” variety), sown in starter cups on a 50/50 peat soil-pozzolana substrate and grown at 24° C., are treated at the Z11 cotyledon stage by spraying with the active ingredient prepared as described above. Plants, used as controls, are treated with the mixture of acetone/tween/DMSO/water not containing the active material. After 24 hours, the plants are contaminated by spraying the cotyledons with an aqueous suspension of cryopreserved Botrytis cinerea spores (50 000 spores per ml). The spores are suspended in a nutrient solution composed of 10 g/L of PDB, 50 g/L of D-Fructose, 2 g/L of NH4NO3 and 1 g/L of KH2PO4. The contaminated gherkin plants are incubated at 17° C. and at 90% relative humidity. Grading (% of efficacy) is carried out 4 to 5 days after the contamination, in comparison with the control plants.

Phakopsora pachyrhizi = test: In vivo Phakopsora test (soybeans) / preventive; settings: 10 ppm of active ingredient, evaluated 7 days after the inoculation
Experimental: [table] To produce a suitable preparation of active compound, 1 part by weight of active compound is mixed with the stated amounts of solvent and emulsifier, and the concentrate is diluted with water to the desired concentration. To test for preventive activity, young plants are sprayed with the preparation of active compound at the stated rate of application. […] The plants remain in the incubation cabinet at approximately 24° C. and a relative atmospheric humidity of approximately 80% and a day/night interval of 12 h.

logP [1]	SMILES	Eff. % (Uromyces appendiculatus; 500 ppm) [%]	Eff. % (Pyrenophora teres) [%]	Eff. % (Sphaerotheca fuliginea; 500 ppm) [%]	Eff. % (Puccinia recondita; 500 ppm) [%]	Eff. % (Septoria tritici) [%]	Eff. % (Alternaria brassicae) [%]	Eff. % (Botrytis cinerea; 500 ppm) [%]	Efficacy (Pyrenophora teres)	Eff. % (Phakopsora pachyrhizi) [%]	Eff. % (Uromyces appendiculatus; 100 ppm) [%]	Eff. % (Sphaerotheca fuliginea; 100 ppm) [%]	Eff. % (Puccinia recondita; 100 ppm) [%]	Eff. % (Botrytis cinerea; 100 ppm) [%]
3.46[a]	CC1CC2(CC2(Cl)Cl)c2cccc(NC(=O)c3cn(C)nc3C(F)F)c21 (stereo not shown) [Example 3]	100	81	100	94	100	–	–	–	–	–	–	–	–
2.78[a]	CC1CCc2cccc(NC(=O)c3cn(C)nc3C(F)F)c21 (stereo not shown) [Example 9]	100	96	–	100	97	92	–	at least 70%	–	–	–	–	–
3.26[a]	CCCON=C1CC(C)c2c(NC(=O)c3cn(C)nc3C(F)F)cccc21 (stereo not shown) [Example 11]	90	83	–	81	–	93	–	–	–	–	–	–	–
1.9[a]	Cn1cc(C(=O)Nc2cccc3c2CCC32OCCO2)c(C(F)F)n1 [Example 12]	–	–	–	83	–	86	–	–	–	–	–	–	–
4.44[a]	CC1CC(CC(C)(C)C)c2cccc(NC(=O)c3cn(C)nc3C(F)F)c21 (stereo not shown) [Example 18]	100	–	100	100	93	83	–	–	–	–	–	–	–
3.24[a]	CCCON=C1CC(C)c2c(NC(=O)c3c(C)nn(C)c3F)cccc21 (stereo not shown) [Example 19]	93	75	89	81	–	–	–	–	–	–	–	–	–
4.32[a]	Cc1nn(C)c(F)c1C(=O)Nc1cccc2c1C(C)CC2CC(C)C (stereo not shown) [Example 20]	100	97	98	100	79	93	–	–	–	–	–	–	–
3.62[a]	CCC1(C)CCc2c(NC(=O)c3cn(C)nc3C(F)F)cccc21 (stereo not shown) [Example 24]	97	80	98	98	92	–	–	–	–	–	–	–	–
3.13[a]	CC1CC2(CC2)c2cccc(NC(=O)c3cn(C)nc3C(F)F)c21 (stereo not shown) [Example 25]	99	96	100	100	92	93	88	–	94	–	–	–	–
2.33[a]	CON=C1CC(C)c2c(NC(=O)c3c(C)nn(C)c3F)cccc21 (stereo not shown) [Example 27]	–	–	–	86	–	75	–	–	–	–	–	–	–
4.24[a]	CC(C)CC1CC(C)c2c(NC(=O)c3cn(C)nc3C(F)F)cccc21 (stereo not shown) [Example 33]	100	97	100	98	93	97	–	–	–	–	–	–	–
2.78[a]	CCON=C1CC(C)c2c(NC(=O)c3cn(C)nc3C(F)F)cccc21 (stereo not shown) [Example 34]	97	83	–	81	86	86	–	–	–	–	–	–	–
4.61[a]	CC1CC2(CC2)c2cccc(NC(=S)c3cn(C)nc3C(F)F)c21 (stereo not shown) [Example 38]	–	–	–	83	–	71	–	70%	–	–	–	–	–
–	CC1CC2(CC2)c2cccc(NC(=S)c3cn(C)nc3C(F)(F)F)c21 (stereo not shown) [Example 41]	100	–	98	100	–	75	–	–	–	–	–	–	–
–	CC1CC(CC(C)(C)C)c2cccc(NC(=S)c3cn(C)nc3C(F)F)c21 (stereo not shown) [Example 42]	100	–	100	98	88	75	–	–	–	–	–	–	–
–	CC(C)CC1CC(C)c2c(NC(=S)c3cn(C)nc3C(F)F)cccc21 (stereo not shown) [Example 44]	100	–	100	100	88	95	73	–	–	–	–	–	–
4.2[a]	CC1CC2(CCCCC2)c2cccc(NC(=O)c3cn(C)nc3C(F)F)c21 (stereo not shown) [Example 46]	–	–	–	–	–	–	–	–	–	100	100	100	75
3.24[a]	CC1CC2(CC2)c2cccc(NC(=O)c3cn(C)nc3I)c21 (stereo not shown) [Example 52]	–	–	–	–	–	–	–	–	–	100	88	90	87
4.67[a]	CC1CC2(CCCCC2)c2cccc(NC(=S)c3cn(C)nc3C(F)F)c21 (stereo not shown) [Example 53]	–	–	–	–	–	–	–	–	–	100	100	100	82

SMILES	logP [1]	Eff. % (Uromyces appendiculatus; 500 ppm) [%]	Eff. % (Pyrenophora teres) [%]	Eff. % (Sphaerotheca fuliginea; 500 ppm) [%]	Eff. % (Puccinia recondita; 500 ppm) [%]	Eff. % (Septoria tritici) [%]	Eff. % (Alternaria brassicae) [%]	Eff. % (Botrytis cinerea; 500 ppm) [%]	Efficacy (Pyrenophora teres)	Eff. % (Phakopsora pachyrhizi) [%]	Eff. % (Uromyces appendiculatus; 100 ppm) [%]	Eff. % (Sphaerotheca fuliginea; 100 ppm) [%]	Eff. % (Puccinia recondita; 100 ppm) [%]	Eff. % (Botrytis cinerea; 100 ppm) [%]
CC1CC(C(C)C)c2cccc(NC(=O)c3cn(C)nc3C(F)F)c21 (stereo not shown) [Example 6]	3.82[a]	100	96	97	100	92	100	–	–	–	–	–	–	–
CC1CC(C)c2c(NC(=O)c3cn(C)nc3C(F)F)cccc21 (stereo not shown) [Example 8]	3.21[a]	100	88	95	100	91	–	100	–	–	–	–	–	–
